Laboratory results reported in US20090163571A1, “PHARMACEUTICAL FOR USE IN THE TREATMENT OF URETEROLITHIASIS” (KISSEI PHARMACEUTICAL CO., LTD, priority 2005, published 2009).
Where a name gives a salt, the structure may show the parent alone.

How the values were obtained:
isolated hamster ureter = experiment: Inhibition of phenylephrine-induced contraction of isolated hamster ureter (organ bath); settings: for pA2: against phenylephrine concentration-response curve
[1] = anesthetized dogs; compared with the compound of general formula (I); cited from earlier work

Compound	pA2 (isolated hamster ureter)	inhibitory effect against phenylephrine induced ureteral contraction (shift of concentration-response curve) (isolated hamster ureter; 3×10^−10, 1×10^−9, 3×10^−9 mol/L, about 30 min pretreatment)	decrease of blood pressure [1]
COc1ccccc1N1CCN(CCN2C(=O)CC3(CCCC3)CC2=O)CC1 [BMY-7378]	5.75		
C[C@H](Cc1cc2c(c(C(N)=O)c1)N(CCCO)CC2)NCCOc1ccccc1OCC(F)(F)F [Compound 1, (−)-1-(3-hydroxypropyl)-5-((2R)-2-{[2-((2-[(2,2,2-trifluoroethyl)oxy]phenyl)oxy)ethyl]amino}propyl)-2,3-dihydro-1H-indole-7-carboxamide]	9.44	caused concentration-dependently a parallel rightward shift of the concentration-response curve for phenylephrine	
COc1ccccc1N1CCN(CC(O)COc2cccc3ccccc23)CC1 (stereo not drawn) [naftopidil]	6.54		
CCOc1ccccc1OCCN[C@H](C)Cc1ccc(OC)c(S(N)(=O)=O)c1 [tamsulosin hydrochloride]	9.85		decreases blood pressure more strongly than the compound represented by the above general formula (I)
